According to US12466821B2 (Novartis AG, priority 2018, dated 2025):

Assays:
[1] = biological target: human HSV DNA polymerase UL30 (Human herpesvirus 1 (strain 17) (HHV-1) (Human herpes simplex virus 1), UniProt P04293); assay: HSV polymerase biochemical assay (molecular beacon-based)
Method in brief: (§1)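 Full-length wild-type N-terminal MBP-fusion polymerases from sf9 cells were used at 100 pM (CMV) or 625 pM (HSV) in Tris pH 7.5, 10 mM MgCl2, and preincubated with inhibitor for 30 min at RT. Reactions with 1.25 uM each dNTP, 200 nM primer and 100 nM molecular beacon ran 60 min (CMV) or 20 min (HSV) at RT. Fluorescence was read at 480/535 nm and IC50 derived.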

[2] = test system: KOS strain of HSV-1 virus; assay: HSV-1 qPCR assay (cellular herpesvirus replication); assay type: cell-based; conditions: Human alphaherpesvirus 1; NN-NHDF cells, qPCR after 24 hrs; n>3, value (+/- spread)
Description: For all viral assays, 10 mM DMSO stock compound solutions were serially diluted in DMSO at 3.16 fold dilutions in 96-well clear round bottom plates. Compounds were then diluted in assay media at 1:20 and subsequently 10 μL of these dilutions were added to cells for final compound concentrations ranging either from 0.0159 μM to 50 μM in 0.5% DMSO/assay media, or from 0.00318 to 10 μM in 0.5% DMSO/assay media.
HSV-1 qPCR assay: The assay uses KOS strain of HSV-1 virus (ATCC cat #VR-1493). Viral replication in the presence or absence of compounds was measured by qPCR according to the following procedure: NN-NHDF cells were plated at 9,000 cells/well in 96-well white-wall clear bottom plates in 80 μL/well of assay media (same as CMV) and left at room temperature in laminar flow hood for 20 mins followed by incubation at 37° C. […]
qPCR reactions were carried out in a total reaction volume of 20 μL, using the QuantiFast® Multiplex PCR kit (Qiagen cat #204656). Eighteen μL of qPCR master mix (10 μL of 2× QuantiFast® Multiplex PCR Master Mix, 1 μL of 20× Primer/Probe Mix specific to housekeeping gene, 1 μL of 20× Primer/Probe Mix specific to viral gene, 6 μL of H2O) was distributed into each well of a 384 well plate. […]
Relative quantification was calculated with the ΔΔCT Method, and then converted into percent inhibitions. […] EC50 values were calculated using XLFit Dose Response One Site Model 205.

[3] = biological target: human CMV DNA polymerase UL54 (Human cytomegalovirus (strain AD169) (HHV-5) (Human herpesvirus 5), UniProt P08546); assay: CMV polymerase biochemical assay (molecular beacon-based)
Method in brief: as §1

SMILES: N#Cc1ccc(CNC(=O)c2ccc3n(c2=O)CCN(CC2(S(=O)(=O)C4CC4)CC2)C3=O)cc1 [Example 1, N-(4-cyanobenzyl)-2-((1-(cyclopropylsulfonyl)cyclopropyl)methyl)-1,6-dioxo-2,3,4,6-tetrahydro-1H-pyrido[1,2-a]pyrazine-7-carboxamide]
- IC50 [1]: 27.3 nM
- EC50 [2]: 32 nM
- IC50 [3]: 0.8 nM
